Measured values from paper PMC8359378 (British Journal of Clinical Pharmacology, 2021).
“Also recorded” adds a separate entry of the source. Marks after values point to notes of the source that are not given here.

Assays:
[1] = system: healthy subjects; experiment: safety and tolerability; format: in vivo, human
[2] = plasma pharmacokinetics in first‐in‐human study; format: in vivo; settings: for Tmax: human, plasma
[3] = system: prothrombin time [PT], international normalised ratio [INR]; experiment: prothrombin time; format: in vivo, human; settings: any of the dose levels tested in Part A or Part B
[4] = system: FXa, FIXa, FXIIa, FVIIa, thrombin, tPA, urokinase and plasmin; settings: cited from earlier work
[5] = system: monkey arteriovenous shunt model; settings: preclinical; cited from earlier work
[6] = Part A, single dose 150 mg, fasted
[7] = Part A, single dose 300 mg, fasted
[8] = Part B, 80 mg QD for 14 days, fed
[9] = Part B, 150 mg QD for 14 days, fed
[10] = Part B, 250 mg QD for 14 days, fed

Nc1ccc(-c2nc([C@H]3CCc4cc(-c5cc(Cl)ccc5-n5cnnn5)cc(=O)n43)c(F)[nH]2)c(F)n1 [ONO‐7684]
Thrombocytopenia TEAE, subjects ([1]; Part A, single dose 80 mg, fasted): 0 n (%)
Abdominal pain upper TEAE, subjects ([1]; Part A, single dose 80 mg, fed): 0 n (%)
All TEAEs, subjects ([1]; Part A, single dose 80 mg, fed): 1 (16.7) n (%)
Dizziness TEAE, subjects ([1]; Part A, single dose 80 mg, fed): 0 n (%)
Gonorrhoea TEAE, subjects ([1]; Part A, single dose 80 mg, fed): 0 n (%)
Headache TEAE, subjects ([1]; Part A, single dose 80 mg, fed): 1 (16.7) n (%)
Lethargy TEAE, subjects ([1]; Part A, single dose 80 mg, fed): 0 n (%)
Nasopharyngitis TEAE, subjects ([1]; Part A, single dose 80 mg, fed): 0 n (%)
Nausea TEAE, subjects ([1]; Part A, single dose 80 mg, fed): 0 n (%)
Pain TEAE, subjects ([1]; Part A, single dose 80 mg, fed): 0 n (%)
Skin laceration TEAE, subjects ([1]; Part A, single dose 80 mg, fed): 0 n (%)
Thrombocytopenia TEAE, subjects ([1]; Part A, single dose 80 mg, fed): 0 n (%)
Abdominal pain upper TEAE, subjects [1, 6]: 0 n (%)
All TEAEs, subjects [1, 6]: 0 n (%)
Dizziness TEAE, subjects [1, 6]: 0 n (%)
Gonorrhoea TEAE, subjects [1, 6]: 0 n (%)
Headache TEAE, subjects [1, 6]: 0 n (%)
Lethargy TEAE, subjects [1, 6]: 0 n (%)
Nasopharyngitis TEAE, subjects [1, 6]: 0 n (%)
Nausea TEAE, subjects [1, 6]: 0 n (%)
Pain TEAE, subjects [1, 6]: 0 n (%)
Skin laceration TEAE, subjects [1, 6]: 0 n (%)
Thrombocytopenia TEAE, subjects [1, 6]: 0 n (%)
Abdominal pain upper TEAE, subjects [1, 7]: 0 n (%)
All TEAEs, subjects [1, 7]: 2 (33.3) n (%)
Dizziness TEAE, subjects [1, 7]: 0 n (%)
Gonorrhoea TEAE, subjects [1, 7]: 0 n (%)
Headache TEAE, subjects [1, 7]: 2 (33.3)^a n (%)
Lethargy TEAE, subjects [1, 7]: 0 n (%)
Nasopharyngitis TEAE, subjects [1, 7]: 0 n (%)
Nausea TEAE, subjects [1, 7]: 0 n (%)
Pain TEAE, subjects [1, 7]: 0 n (%)
Skin laceration TEAE, subjects [1, 7]: 0 n (%)
Thrombocytopenia TEAE, subjects [1, 7]: 1 (16.7) n (%)
All TEAEs, subjects [1, 8]: 2 (33.3) n (%)
Bleeding time prolonged TEAE, subjects [1, 8]: 0 n (%)
Dizziness TEAE, subjects [1, 8]: 1 (16.7) n (%)
Headache TEAE, subjects [1, 8]: 1 (16.7) n (%)
Muscle twitching TEAE, subjects [1, 8]: 1 (16.7) n (%)
All TEAEs, subjects [1, 9]: No TEAEs
Bleeding time prolonged TEAE, subjects [1, 9]: 0 n (%)
Dizziness TEAE, subjects [1, 9]: 0 n (%)
Headache TEAE, subjects [1, 9]: 0 n (%)
Muscle twitching TEAE, subjects [1, 9]: 0 n (%)
All TEAEs, subjects ([1]; Part B, 150 mg QD for 14 days, fed, listed as ONO 7684): 0 n (%)
All TEAEs, subjects [1, 10]: No TEAEs
Bleeding time prolonged TEAE, subjects [1, 10]: 0 n (%)
Dizziness TEAE, subjects [1, 10]: 0 n (%)
Headache TEAE, subjects [1, 10]: 0 n (%)
Muscle twitching TEAE, subjects [1, 10]: 0 n (%)
All TEAEs, subjects ([1]; Part B, 250 mg QD for 14 days, fed, listed as ONO 7684): 0 n (%)
bleeding risk ([1]; Parts A and B): no evidence to suggest a bleeding risk; also recorded: no evidence of a bleeding risk
severe or serious TEAEs, TEAEs leading to discontinuation ([1]; Parts A and B): no severe or serious TEAEs
tolerability ([1]; all dose levels, single and repeated doses): well tolerated at all dose levels tested
time of peak mean plasma concentration post‐dose ([2]; Part A, 80 mg fed cohort): approximately 8 hours
fold increase of AUCinf with a 300‐fold increase in dose ([2]; Part A, 1–300 mg): ~416 fold
fold increase of Cmax with a 300‐fold increase in dose ([2]; Part A, 1–300 mg): about 308 fold
time of peak mean plasma concentration post‐dose ([2]; Part A, each cohort except 80 mg fed): approximately 4 hours
AUC24 accumulation GM ratio Day 14 versus Day 1 ([2]; Part B, 80 mg QD): 2.33
Cmax accumulation GM ratio Day 14 versus Day 1 ([2]; Part B, 80 mg QD): 1.88
AUC24 accumulation GM ratio Day 14 versus Day 1 ([2]; Part B, 150 mg QD): 2.22
Cmax accumulation GM ratio Day 14 versus Day 1 ([2]; Part B, 150 mg QD): 1.90
AUC24 accumulation GM ratio Day 14 versus Day 1 ([2]; Part B, 250 mg QD): 2.41
Cmax accumulation GM ratio Day 14 versus Day 1 ([2]; Part B, 250 mg QD): 2.09
fold increase of AUC24 with a 3.1‐fold increase in dose ([2]; Part B, 80–250 mg QD, Day 14): approximately 3.6 fold
fold increase of Cmax with a 3.1‐fold increase in dose ([2]; Part B, 80–250 mg QD, Day 14): approximately 3.6 fold
time for plasma concentrations to decrease to baseline levels ([2]; Part B, after final dose on Day 14): ≤ 72 h
time to reach steady state ([2]; Part B, daily dosing): ≤ 6 days
Tmax ([2]; oral, median range across cohorts, Part A, fasted cohorts): 2.5 to 4 h
Tmax ([2]; oral, median range across cohorts, Part B, Day 1): 2.5 to 4 h
Tmax ([2]; oral, median range across cohorts, Part B, Day 14): 4 to 4.01 h
Tmax ([2]; po, 1 mg, median (range), Part A, single dose 1 mg, fasted): 2.5 h
Tmax ([2]; po, 5 mg, median (range), Part A, single dose 5 mg, fasted): 3.5 h
Tmax ([2]; po, 80 mg, median (range), Part A, single dose 80 mg, fed): 7.05 h
Tmax ([2]; po, 80 mg, median (range), Part B, 80 mg QD fed, Day 1): 2.5 h
Tmax ([2]; po, 80 mg, median (range), Part B, 80 mg QD fed, Day 14): 4.01 h
Tmax ([2]; po, 150 mg, median (range), Part B, 150 mg QD fed, Day 1): 4 h
Tmax ([2]; po, 150 mg, median (range), Part B, 150 mg QD fed, Day 14): 4.01 h
Tmax ([2]; po, 250 mg, median (range), Part B, 250 mg QD fed, Day 1): 4 h
Tmax ([2]; po, 250 mg, median (range), Part B, 250 mg QD fed, Day 14): 4 h
effect on INR [3]: did not significantly affect
effect on PT [3]: did not significantly affect
selectivity for FXIa relative to other coagulation/fibrinolysis factors [4]: highly selective for FXIa
thrombus formation [5]: significantly inhibited thrombus formation
